Read-outs that look alike come from different tables or passages of the source. Square brackets hold non-standard residues; d marks the D form. Side chains are listed from the residue outwards. Peptide text beside a SMILES is read from it. * marks the point of attachment. His(τ-Bzl) = N[C@@H](Cc1cn(Cc2ccccc2)cn1)C(=O)O; Phe(3,4-F2) = N[C@@H](Cc1ccc(F)c(F)c1)C(=O)O; Phe(4-F) = N[C@@H](Cc1ccc(F)cc1)C(=O)O; 2Nal = N[C@@H](Cc1ccc2ccccc2c1)C(=O)O; d2Nal = N[C@H](Cc1ccc2ccccc2c1)C(=O)O; Tle = CC(C)(C)[C@H](N)C(=O)O; dNle = CCCC[C@@H](N)C(=O)O; Nle = CCCC[C@H](N)C(=O)O; X4 = O=C(c1ccc(Cl)nc1)*; Dap = NC[C@H](N)C(=O)O
Experiments:
[1] = tested on: H1299 lung cancer cells; format: cell-based; details: for IC50: 72 h; for anti-proliferative activity against lung cancer cells (in words): MTT assay
Procedure: MTT assays (Mosmann, T. (1983) J. Immunol. Methods 65:55) were performed with H1299 lung cancer cells. One hundred μL of H1299 cells (0.5×10^5 cells/mL) were seeded in each well of a 96-well culture plate and allowed to grow overnight in Advanced RPMI medium supplemented with 10% fetal bovine serum (FBS) and 1% penicillin-streptomycin. Varying concentrations of cyclic peptide (0-25 μM) were added to the each well and the cells were incubated at 37° C. with 5% CO2 for 72 hours. Ten μL of a MTT stock solution (Roche) was added into each well. The plate was incubated at 37° C. for 4 h. Then 100 μL of SDS-HCl solubilizing buffer was added into each well, and the resulting solution was mixed thoroughly. The plate was incubated at 37° C. overnight. The absorbance of the formazan product was measured at 570 nm using a Molecular Devices Spectramax M5 plate reader. Each experiment was performed in triplicates and the cells without any peptide added were treated as control.

[2] = target: T1, Ras(G12V)-Raf RBD interaction (Homo sapiens, UniProt P01116, G12V); experiment: HTRF assay, inhibition of Ras-Raf RBD interaction; format: binding; details: for IC50: read-out: HTRF IC50; for increase of Ras binding affinity by substitution: relative to parent 9A5/9A6
T1 construct: The G12V mutant K-Ras (amino acids 1-185) was recombinantly fused to glutathione 5-transferase (GST) at its N-terminus; GST (N, cleaved yes); made in house; host or cells: Escherichia coli BL21
Procedure: Recombinant HA-tagged K-Ras (no GST, 50 nM), GST-Raf RBD (50 nM each), a monoclonal anti-HA antibody labeled with acceptor d2 (2 μg/mL), a monoclonal anti-GST antibody labeled with donor Tb (0.25 μg/mL) (Cisbio), and increasing concentrations of cyclic peptide (0-20 μM) were mixed in PBS (total volume of 20 μL) in a 384-well plate. The plate was incubated overnight at 4° C. and the HTRF signal was measured on a Molecular Devices Spectramax M5 or a Tecan infinite M1000 Pro plate reader. The data were analyzed by Prism 6.0 from Graphpad Software, Inc. (La Jolla, Calif.) and IC50 values were obtained by fitting the data to dose-response-inhibition curve.

[3] = inhibition of Ras-Raf interaction, unlabeled peptide

T1 sequence (P01116 1-185 isoform P01116-2 G12V): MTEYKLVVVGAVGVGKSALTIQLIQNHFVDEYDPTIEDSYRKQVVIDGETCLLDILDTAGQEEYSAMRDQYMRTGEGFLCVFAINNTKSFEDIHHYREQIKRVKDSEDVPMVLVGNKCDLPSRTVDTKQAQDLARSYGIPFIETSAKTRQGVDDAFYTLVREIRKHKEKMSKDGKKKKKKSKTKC

IC50 [1]	SMILES	further results
13 ± 2 µM	CCCC[C@H]1NC(=O)[C@H](Cc2ccc(F)cc2)NC(=O)[C@H](CCCNC(=N)N)NC(=O)[C@@H](Cc2ccc3ccccc3c2)NC(=O)[C@H](CCCNC(=N)N)NC(=O)[C@H](CCCNC(=N)N)NC(=O)[C@H](CCC(=O)N[C@@H](CCCCN)C(N)=O)NC(=O)[C@@H](C)NC(=O)[C@H]([C@@H](C)O)NC(=O)[C@H](Cc2c[nH]c3ccccc23)NC(=O)[C@H](CCC(N)=O)NC1=O [Cyclorasin 9A1] (cyclo(RR[d2Nal]R[Phe(4-F)][dNle]QWT[dA]E([Lys-NH2])))	–
–	CCCC[C@H](NC(=O)CC[C@@H]1NC(=O)[C@@H](C)NC(=O)[C@H]([C@@H](C)O)NC(=O)[C@H](Cc2c[nH]c3ccccc23)NC(=O)[C@H](CCC(N)=O)NC(=O)[C@@H](CCCC)NC(=O)[C@H](Cc2ccc(F)cc2)NC(=O)[C@H](CCCNC(=N)N)NC(=O)[C@@H](Cc2ccc3ccccc3c2)NC(=O)[C@H](CCCNC(=N)N)NC(=O)[C@H](CCCNC(=N)N)NC1=O)C(N)=O [Cyclorasin 9A4] (cyclo(RR[d2Nal]R[Phe(4-F)][dNle]QWT[dA]E([Nle-NH2])))	IC50 [2, 3]: 0.5 ± 0.1 µM
10 ± 3 µM	CC(C)C[C@H]1NC(=O)[C@H](Cc2ccc(F)cc2)NC(=O)[C@H](CCCNC(=N)N)NC(=O)[C@@H](Cc2ccc3ccccc3c2)NC(=O)[C@H](CCCNC(=N)N)NC(=O)[C@H](CCCNC(=N)N)NC(=O)[C@@H](CCCNC(=N)N)NC(=O)[C@@H](C)NC(=O)[C@H]([C@@H](C)O)NC(=O)[C@H](Cc2c[nH]c3ccccc23)NC(=O)[C@H](CCC(N)=O)NC1=O [Cyclorasin 9A10] (cyclo(WT[dA][dR]RR[d2Nal]R[Phe(4-F)][dL]Q))	–
9.6 ± 1.3 µM	CCCC[C@H]1NC(=O)[C@H](Cc2ccccc2)NC(=O)[C@H](CCCNC(=N)N)NC(=O)[C@@H](Cc2ccc3ccccc3c2)NC(=O)[C@H](CCCNC(=N)N)NC(=O)[C@H](CCCNC(=N)N)NC(=O)[C@@H](CCCNC(=N)N)NC(=O)[C@@H](C)NC(=O)[C@H]([C@@H](C)O)NC(=O)[C@H](Cc2c[nH]c3ccccc23)NC(=O)[C@H](CCC(N)=O)NC1=O [Cyclorasin 9A12]	–
–	CCCC[C@H]1NC(=O)[C@H](Cc2ccc(O)cc2)NC(=O)[C@H](CCCNC(=N)N)NC(=O)[C@@H](Cc2ccc3ccccc3c2)NC(=O)[C@H](CCCNC(=N)N)NC(=O)[C@H](CCCNC(=N)N)NC(=O)[C@@H](CCCNC(=N)N)NC(=O)[C@@H](C)NC(=O)[C@H]([C@@H](C)O)NC(=O)[C@H](Cc2c[nH]c3ccccc23)NC(=O)[C@H](CCC(N)=O)NC1=O [Cyclorasin 9A13] (cyclo(QWT[dA][dR]RR[d2Nal]RY[dNle]))	IC50 [2, 3]: > 20 µM
12 ± 1 µM	CCCC[C@H]1NC(=O)[C@H](Cc2ccc(F)cc2)NC(=O)[C@H](CCCNC(=N)N)NC(=O)[C@@H](Cc2ccc3ccccc3c2)NC(=O)[C@H](CCCNC(=N)N)NC(=O)[C@H](CCCNC(=N)N)NC(=O)[C@@H](CCCNC(=N)N)NC(=O)[C@@H](CC(C)C)NC(=O)[C@H]([C@@H](C)O)NC(=O)[C@H](Cc2c[nH]c3ccccc23)NC(=O)[C@H](CCC(N)=O)NC1=O [Cyclorasin 9A15] (cyclo(WT[dL][dR]RR[d2Nal]R[Phe(4-F)][dNle]Q))	–
–	CCCC[C@H]1NC(=O)[C@H](CNC(=O)c2ccc(Cl)nc2)NC(=O)[C@H](CCCNC(=N)N)NC(=O)[C@@H](Cc2ccc3ccccc3c2)NC(=O)[C@H](CCCNC(=N)N)NC(=O)[C@H](CCCNC(=N)N)NC(=O)[C@H](CCCNC(=N)N)NC(=O)[C@@H](C)NC(=O)[C@H](C(C)(C)C)NC(=O)[C@H](Cc2c[nH]c3ccccc23)NC(=O)[C@H](CCC(N)=O)NC1=O [Cyclorasin 9A44b] (cyclo(W[Tle][dA]RRR[d2Nal]R[Dap](X4)[dNle]Q))	IC50 [2]: 0.52 ± 0.16 µM
11 ± 3 µM	CCCC[C@H]1NC(=O)[C@H](Cc2ccc(F)cc2)NC(=O)[C@H](CCCNC(=N)N)NC(=O)[C@@H](Cc2ccc3ccccc3c2)NC(=O)[C@H](CCCNC(=N)N)NC(=O)[C@H](CCCNC(=N)N)NC(=O)[C@H](CCCNC(=N)N)NC(=O)[C@@H](C(C)C)NC(=O)[C@H](C(C)(C)C)NC(=O)[C@H](Cc2c[nH]c3ccccc23)NC(=O)[C@H](CCC(N)=O)NC1=O [Cyclorasin 9A48] (cyclo(W[Tle][dV]RRR[d2Nal]R[Phe(4-F)][dNle]Q))	–
6.3 ± 0.4 µM	CCCC[C@H]1NC(=O)[C@H](Cc2ccc(F)cc2)NC(=O)[C@H](CCCNC(=N)N)NC(=O)[C@@H](Cc2ccc3ccccc3c2)NC(=O)[C@H](CCCNC(=N)N)NC(=O)[C@H](CCCNC(=N)N)NC(=O)[C@H](CCCNC(=N)N)NC(=O)[C@@H](C)NC(=O)[C@H]([C@@H](C)O)NC(=O)[C@H](Cc2ccc3ccccc3c2)NC(=O)[C@H](CCC(N)=O)NC1=O [Cyclorasin 9A49] (cyclo([2Nal]T[dA]RRR[d2Nal]R[Phe(4-F)][dNle]Q))	–
–	CC(C)[C@H]1NC(=O)[C@H](C(C)(C)C)NC(=O)[C@H](Cc2c[nH]c3ccccc23)NC(=O)[C@H](CCC(N)=O)NC(=O)[C@@H](CCCNC(=N)N)NC(=O)[C@H](Cc2ccc(F)c(F)c2)NC(=O)[C@H](CCCNC(=N)N)NC(=O)[C@@H](Cc2ccc3ccccc3c2)NC(=O)[C@H](CCCNC(=N)N)NC(=O)[C@H](CCCNC(=N)N)NC(=O)[C@H](CCCNC(=N)N)NC1=O [Cyclorasin 9A50] (cyclo([Phe(3,4-F2)][dR]QW[Tle][dV]RRR[d2Nal]R))	IC50 [2, 3]: > 1 µM
6.7 ± 0.8 µM	CCCC[C@H]1NC(=O)[C@H](Cc2ccc(F)c(F)c2)NC(=O)[C@H](CCCNC(=N)N)NC(=O)[C@@H](Cc2ccc3ccccc3c2)NC(=O)[C@H](CCCNC(=N)N)NC(=O)[C@H](CCCNC(=N)N)NC(=O)[C@@H](CCCNC(=N)N)NC(=O)[C@@H](C(C)C)NC(=O)[C@H](C(C)(C)C)NC(=O)[C@H](Cc2c[nH]c3ccccc23)NC(=O)[C@H](CCC(N)=O)NC1=O [Cyclorasin 9A51] (cyclo(W[Tle][dV][dR]RR[d2Nal]R[Phe(3,4-F2)][dNle]Q))	anti-proliferative activity against lung cancer cells (in words) [1]: less effective
–	C[C@H]1NC(=O)[C@H]([C@@H](C)O)NC(=O)[C@H](Cc2c[nH]c3ccccc23)NC(=O)[C@H](CCC(N)=O)NC(=O)[C@@H](CCCNC(=N)N)NC(=O)[C@H](Cc2ccc(F)c(F)c2)NC(=O)[C@H](CCCNC(=N)N)NC(=O)[C@@H](Cc2ccc3ccccc3c2)NC(=O)[C@H](CCCNC(=N)N)NC(=O)[C@H](CCCNC(=N)N)NC(=O)[C@H](CCCNC(=N)N)NC1=O [Cyclorasin 9A52] (cyclo([Phe(3,4-F2)][dR]QWT[dA]RRR[d2Nal]R))	IC50 [2, 3]: > 1 µM
13 ± 1 µM	CCCC[C@H]1NC(=O)[C@H](Cc2ccc(F)cc2)NC(=O)[C@H](CCCNC(=N)N)NC(=O)[C@@H](Cc2ccc3ccccc3c2)NC(=O)[C@H](CCCNC(=N)N)NC(=O)[C@H](CCCNC(=N)N)NC(=O)[C@@H](CCCNC(=N)N)NC(=O)[C@@H](C(C)C)NC(=O)[C@H](C(C)(C)C)NC(=O)[C@H](Cc2c[nH]c3ccccc23)NC(=O)[C@H](CCC(N)=O)NC1=O [Cyclorasin 9A53] (cyclo(W[Tle][dV][dR]RR[d2Nal]R[Phe(4-F)][dNle]Q))	–
7.2 ± 0.4 µM	CCCC[C@H]1NC(=O)[C@H](Cc2ccc(F)c(F)c2)NC(=O)[C@H](CCCNC(=N)N)NC(=O)[C@@H](Cc2ccc3ccccc3c2)NC(=O)[C@H](CCCNC(=N)N)NC(=O)[C@H](CCCNC(=N)N)NC(=O)[C@H](CCCNC(=N)N)NC(=O)[C@@H](C(C)C)NC(=O)[C@H](C(C)(C)C)NC(=O)[C@H](Cc2c[nH]c3ccccc23)NC(=O)[C@H](CCC(N)=O)NC1=O [Cyclorasin 9A54] (cyclo(W[Tle][dV]RRR[d2Nal]R[Phe(3,4-F2)][dNle]Q))	anti-proliferative activity against lung cancer cells (in words) [1]: less effective
12 ± 1 µM	CCCC[C@H]1NC(=O)[C@H](Cc2ccc(F)cc2)NC(=O)[C@H](CCCNC(=N)N)NC(=O)[C@H](Cc2ccc3ccccc3c2)NC(=O)[C@H](CCCNC(=N)N)NC(=O)[C@H](CCCNC(=N)N)NC(=O)[C@H](CCCNC(=N)N)NC(=O)[C@@H](C)NC(=O)[C@H]([C@@H](C)O)NC(=O)[C@H](Cc2c[nH]c3ccccc23)NC(=O)[C@H](CCC(N)=O)NC1=O [Cyclorasin 9A55] (cyclo(WT[dA]RRR[2Nal]R[Phe(4-F)][dNle]Q))	–

SMILES	IC50 [1]	further results
CCCC[C@H]1NC(=O)[C@H](Cc2ccc(F)cc2)NC(=O)[C@H](CCCNC(=N)N)NC(=O)[C@@H](Cc2ccc3ccccc3c2)NC(=O)[C@H](CCCNC(=N)N)NC(=O)[C@H](CCCNC(=N)N)NC(=O)[C@H](CCCNC(=N)N)NC(=O)[C@@H](C)NC(=O)[C@H]([C@@H](C)O)NC(=O)[C@H](Cc2cn(Cc3ccccc3)cn2)NC(=O)[C@H](CCC(N)=O)NC1=O [Cyclorasin 9A7] (cyclo([Phe(4-F)][dNle]Q[His(τ-Bzl)]T[dA]RRR[d2Nal]R))	10 ± 1 µM	–
CCCC[C@H]1NC(=O)[C@H](Cc2ccc(F)cc2)NC(=O)[C@H](CCCNC(=N)N)NC(=O)[C@@H](Cc2ccc3ccccc3c2)NC(=O)[C@H](CCCNC(=N)N)NC(=O)[C@H](CCCNC(=N)N)NC(=O)[C@@H](CCCNC(=N)N)NC(=O)[C@@H](C(C)C)NC(=O)[C@H]([C@@H](C)O)NC(=O)[C@H](Cc2c[nH]c3ccccc23)NC(=O)[C@H](CCC(N)=O)NC1=O [Cyclorasin 9A14] (cyclo(WT[dV][dR]RR[d2Nal]R[Phe(4-F)][dNle]Q))	5.4 ± 2.4 µM	increase of Ras binding affinity by substitution [2]: 2 fold
CCCC[C@H]1NC(=O)[C@H](Cc2ccc(F)cc2)NC(=O)[C@H](CCCNC(=N)N)NC(=O)[C@@H](Cc2ccc3ccccc3c2)NC(=O)[C@H](CCCNC(=N)N)NC(=O)[C@H](CCCNC(=N)N)NC(=O)[C@@H](CCCNC(=N)N)NC(=O)[C@@H](C)NC(=O)[C@H](C(C)(C)C)NC(=O)[C@H](Cc2c[nH]c3ccccc23)NC(=O)[C@H](CCC(N)=O)NC1=O [Cyclorasin 9A16] (cyclo(W[Tle][dA][dR]RR[d2Nal]R[Phe(4-F)][dNle]Q))	3.5 ± 0.6 µM	increase of Ras binding affinity by substitution [2]: 2 fold

Source: patent US20170112896A1, “SMALL MOLECULE RAC OR RHO INHIBITORS” (Ohio State Innovation Foundation, priority 2014, published 2017)
